According to PubChem BioAssay (NCI):
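Assay format: 96-well plates, 48-hour exposure. GI50 marks 50% less growth. TGI: total growth inhibition.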 *1 amine or outer side, *2 acyl side, *3 side chain or, on linkers, in order; H or OH if unused. Where a SMILES comes first, the peptide text is derived from it. [ ]: non-standard residue; d: D form. The star is where a group is joined. X11 = C/C=C/CC(C)C(O)[C@H](N[*:1])C(=O)[*:2]; Decanoyl = CCCCCCCCCC(=O)*; Leu(ol) = CC(C)C[C@H](N)CO; Iva = CC[C@](C)(N)C(=O)O; Aib = CC(C)(N)C(=O)O

Assays:
Assay in all cases: DTP human tumour cell line panel, 48 h
NCI-H23 lung = test system: NCI-H23 lung
NCI-H460 lung = test system: NCI-H460 lung
NCI-H522 lung = test system: NCI-H522 lung
NCI/ADR-RES ovarian = test system: NCI/ADR-RES ovarian
OVCAR-3 ovarian = test system: OVCAR-3 ovarian
OVCAR-4 ovarian = test system: OVCAR-4 ovarian
OVCAR-5 ovarian = test system: OVCAR-5 ovarian
OVCAR-8 ovarian = test system: OVCAR-8 ovarian
PC-3 prostate = test system: PC-3 prostate
RPMI-8226 leukemia = test system: RPMI-8226 leukemia
RXF 393 renal = test system: RXF 393 renal
SF-268 CNS = test system: SF-268 CNS
SF-295 CNS = test system: SF-295 CNS
SF-539 CNS = test system: SF-539 CNS
SK-MEL-2 melanoma = test system: SK-MEL-2 melanoma
SK-MEL-28 melanoma = test system: SK-MEL-28 melanoma
SK-MEL-5 melanoma = test system: SK-MEL-5 melanoma
SK-OV-3 ovarian = test system: SK-OV-3 ovarian
SN12C renal = test system: SN12C renal
SNB-19 CNS = test system: SNB-19 CNS
SNB-75 CNS = test system: SNB-75 CNS
SR leukemia = test system: SR leukemia
SW-620 colon = test system: SW-620 colon
T-47D breast = test system: T-47D breast
TK-10 renal = test system: TK-10 renal
U251 CNS = test system: U251 CNS
UACC-257 melanoma = test system: UACC-257 melanoma
UACC-62 melanoma = test system: UACC-62 melanoma
UO-31 renal = test system: UO-31 renal

`C/C=C/CC(C)C(O)[C@H](NC(=O)[C@@H]1CCCN1C(=O)[C@](C)(CC)NC(=O)CCCCCCCCC)C(=O)N[C@@](C)(CC)C(=O)N[C@@H](CCC(N)=O)C(=O)N[C@H](CCC(N)=O)C(=O)NC(C)(C)C(=O)NC(C)(C)C(=O)N[C@@H](CCC(N)=O)C(=O)N[C@H](CC(C)C)C(=O)N[C@H](CO)CC(C)C` (stereo partly drawn) (Decanoyl-[Iva]P[X11][Iva]Q[dQ][Aib][Aib]Q[dL][Leu(ol)]) showed a GI50 (NCI-H23 lung) of 1.8 µM, a TGI (NCI-H23 lung) of 3.42 µM and a GI50 (NCI-H460 lung) of 1.84 µM. It also gave a TGI (NCI-H460 lung) of 3.38 µM, a GI50 (NCI-H522 lung) of 1.77 µM and a TGI (NCI-H522 lung) of 3.37 µM. The GI50 (NCI/ADR-RES ovarian) was 1.81 µM, the TGI (NCI/ADR-RES ovarian) was 3.48 µM and the GI50 (OVCAR-3 ovarian) was 1.88 µM. For the same compound, the TGI (OVCAR-3 ovarian) was 3.44 µM, the GI50 (OVCAR-4 ovarian) was 2.15 µM and the TGI (OVCAR-4 ovarian) was 4.8 µM. For the same compound, the GI50 (OVCAR-5 ovarian) was 1.68 µM, the TGI (OVCAR-5 ovarian) was 3.07 µM and the GI50 (OVCAR-8 ovarian) was 2.04 µM. It also gave a TGI (OVCAR-8 ovarian) of 4.24 µM, a GI50 (PC-3 prostate) of 1.76 µM and a TGI (PC-3 prostate) of 3.26 µM. It also gave a GI50 (RPMI-8226 leukemia) of 2.02 µM, a TGI (RPMI-8226 leukemia) of 4.32 µM and a GI50 (RXF 393 renal) of 2.02 µM. For the same compound, the TGI (RXF 393 renal) was 3.64 µM, the GI50 (SF-268 CNS) was 1.83 µM and the TGI (SF-268 CNS) was 3.45 µM. For the same compound, the GI50 (SF-295 CNS) was 1.74 µM, the TGI (SF-295 CNS) was 3.3 µM and the GI50 (SF-539 CNS) was 1.75 µM. It also gave a TGI (SF-539 CNS) of 3.15 µM, a GI50 (SK-MEL-2 melanoma) of 1.77 µM and a TGI (SK-MEL-2 melanoma) of 3.35 µM. It also gave a GI50 (SK-MEL-28 melanoma) of 1.7 µM, a TGI (SK-MEL-28 melanoma) of 3.09 µM and a GI50 (SK-MEL-5 melanoma) of 1.78 µM. For the same compound, the TGI (SK-MEL-5 melanoma) was 3.25 µM, the GI50 (SK-OV-3 ovarian) was 1.93 µM and the TGI (SK-OV-3 ovarian) was 3.95 µM. For the same compound, the GI50 (SN12C renal) was 1.67 µM, the TGI (SN12C renal) was 3.22 µM and the GI50 (SNB-19 CNS) was 1.74 µM. The TGI (SNB-19 CNS) was 3.18 µM, the GI50 (SNB-75 CNS) was 1.4 µM and the TGI (SNB-75 CNS) was 2.8 µM. It also gave a GI50 (SR leukemia) of 1.61 µM, a TGI (SR leukemia) of 3.43 µM and a GI50 (SW-620 colon) of 1.9 µM. It also gave a TGI (SW-620 colon) of 3.59 µM, a GI50 (T-47D breast) of 1.59 µM and a TGI (T-47D breast) of 3.4 µM. It also gave a GI50 (TK-10 renal) of 1.75 µM, a TGI (TK-10 renal) of 3.27 µM and a GI50 (U251 CNS) of 1.77 µM. It also gave a TGI (U251 CNS) of 3.35 µM, a GI50 (UACC-257 melanoma) of 1.74 µM and a TGI (UACC-257 melanoma) of 3.26 µM. The GI50 (UACC-62 melanoma) was 1.66 µM, the TGI (UACC-62 melanoma) was 3.05 µM and the GI50 (UO-31 renal) was 1.54 µM. For the same compound, the TGI (UO-31 renal) was 2.91 µM.
